Patent publication US6737383B1, “Herbicidal oxadiazolidines” (priority 1999, dated 2004)

Legend:
cocklebur = assay: Test B pre/postemergence cocklebur; assay type: in vivo, Xanthium strumarium
Summary of the method: (§1)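 Herbicidal effect was estimated by eye on a ten-point control scale after plants spent twelve to sixteen days in a greenhouse following soil or foliar treatment. Foliar sprays targeted plants at one to four leaves; all doses were formulated in a non-phytotoxic solvent with surfactant.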

soybean = assay: Test B pre/postemergence soybean; assay type: in vivo, Glycine max
Summary of the method: as §1

velvetleaf = assay: Test B pre/postemergence velvetleaf; assay type: in vivo, Abutilon theophrasti
Summary of the method: as §1

duck salad = assay: Test B flood test duck salad; assay type: in vivo, Heteranthera limosa
Summary of the method: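 Flood test on plants grown to the 2-leaf stage; treated plants kept in greenhouse twelve to sixteen days, then visually rated against controls on a 0 (no effect) to 10 (complete control) scale.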

[1] = Preemergence, Rate 62 g/ha, scale of 0 to 10 where 0 is no effect and 10 is complete control
[2] = Preemergence, Rate 250 g/ha, scale of 0 to 10 where 0 is no effect and 10 is complete control
[3] = Preemergence, Rate 500 g/ha, scale of 0 to 10 where 0 is no effect and 10 is complete control
[4] = Rate 62 g/ha, Postemergence, scale 0 to 10 (0 no effect, 10 complete control)
[5] = Rate 125 g/ha, Postemergence, scale of 0 to 10 where 0 is no effect and 10 is complete control
[6] = Rate 250 g/ha, Postemergence, scale of 0 to 10 where 0 is no effect and 10 is complete control
[7] = Rate 500 g/ha, Postemergence, scale 0 to 10, 0 no effect, 10 complete control
[8] = Rate 62 g/ha, headed Pre-emergence (flood test species), scale 0 to 10 (0 no effect, 10 complete control)
[9] = Rate 125 g/ha, Pre-emergence, flood test species, scale 0 to 10 where 0 is no effect and 10 is complete control
[10] = Rate 250 g/ha, Pre-emergence, flood-test species, scale 0 to 10, 0 is no effect, 10 is complete control
[11] = Rate 500 g/ha, Pre-emergence, flood test species, scale 0 to 10 (0 no effect, 10 complete control)
[12] = Postemergence, Rate 62 g/ha, scale 0 to 10, 0 is no effect, 10 is complete control
[13] = Postemergence, Rate 250 g/ha, scale of 0 to 10, 0 is no effect, 10 is complete control
[14] = Preemergence, Rate 62 g/ha, scale 0 to 10 (0 no effect, 10 complete control)
[15] = Preemergence, Rate 125 g/ha, scale of 0 to 10 where 0 is no effect and 10 is complete control
[16] = Postemergence, Rate 125 g/ha, scale of 0 to 10 where 0 is no effect and 10 is complete control
[17] = Preemergence, Rate 250 g/ha, scale 0 to 10 (0 no effect, 10 complete control)
[18] = Postemergence, Rate 125 g/ha, scale 0 to 10, 0 is no effect, 10 is complete control

For CC(C)n1c(=O)on(C(=O)N(c2ccc(Cl)cc2Cl)C2CCC2)c1=O [Compound 319], the “Cocklebur plant response rating” value (cocklebur; [1]) was 0, the “Cocklebur plant response rating (0 to 10 scale)” value (cocklebur; Preemergence, Rate 125 g/ha) was 0 and the “Cocklebur plant response rating” value (cocklebur; [2]) was 0. The “Cocklebur plant response rating” value (cocklebur; [3]) was 0, the “Cocklebur plant response rating” value (cocklebur; [4]) was 0 and the “Cocklebur plant response rating” value (cocklebur; [5]) was 0. For the same compound, the “Plant response rating, Cocklebur” value (cocklebur; [6]) was 0, the “Cocklebur plant response rating” value (cocklebur; [7]) was 0 and the “Soybean plant response rating” value (soybean; [1]) was 0. The “Soybean plant response rating (0 to 10 scale)” value (soybean; Preemergence, Rate 125 g/ha) was 0, the “Soybean plant response rating” value (soybean; [2]) was 0 and the “Soybean plant response rating” value (soybean; [3]) was 0. For the same compound, the “Soybean plant response rating” value (soybean; [4]) was 0, the “Soybean plant response rating” value (soybean; [5]) was 1 and the “Plant response rating, Soybean” value (soybean; [6]) was 1. For the same compound, the “Velvetleaf plant response rating” value (velvetleaf; [1]) was 0, the “Velvetleaf plant response rating (0 to 10 scale)” value (velvetleaf; Preemergence, Rate 125 g/ha) was 0 and the “Velvetleaf plant response rating” value (velvetleaf; [2]) was 0. The “Velvetleaf plant response rating” value (velvetleaf; [3]) was 0, the “Velvetleaf plant response rating” value (velvetleaf; [4]) was 0 and the “Velvetleaf plant response rating” value (velvetleaf; [5]) was 0. For the same compound, the “Plant response rating, Velvetleaf” value (velvetleaf; [6]) was 0, the “Ducksalad plant response rating” value (duck salad; [8]) was 0 and the “Ducksalad plant response rating” value (duck salad; [9]) was 0. The “Ducksalad plant response rating” value (duck salad; [10]) was 0 and the “Ducksalad plant response rating” value (duck salad; [11]) was 0.
With CC(C)N(C(=O)n1oc(=O)n(CSC#N)c1=O)c1ccc(F)cc1 [Compound 618] the “Plant response rating, Cocklebur” value (cocklebur; [12]) was 0, the “Cocklebur plant response rating” value (cocklebur; [13]) was 0 and the “Plant response rating, Cocklebur” value (cocklebur; Postemergence, Rate 500 g/ha, scale of 0 to 10 where 0 is no effect and 10 is complete control) was 0. For the same compound, the “Cocklebur plant response rating” value (cocklebur; [14]) was 0, the “Cocklebur plant response rating” value (cocklebur; [15]) was 0 and the “Plant response rating, Cocklebur” value (cocklebur; [3]) was 0. The “Plant response rating, Soybean” value (soybean; [12]) was 0, the “Plant response rating, Soybean” value (soybean; [16]) was 0 and the “Soybean plant response rating” value (soybean; [13]) was 6. For the same compound, the “Soybean plant response rating” value (soybean; [14]) was 0, the “Soybean plant response rating” value (soybean; [15]) was 0 and the “Plant response rating, Soybean” value (soybean; [17]) was 0. For the same compound, the “Plant response rating, Soybean” value (soybean; [3]) was 0, the “Plant response rating, Velvetleaf” value (velvetleaf; [12]) was 0 and the “Plant response rating, Velvetleaf” value (velvetleaf; [16]) was 0. For the same compound, the “Velvetleaf plant response rating” value (velvetleaf; [13]) was 0, the “Velvetleaf plant response rating” value (velvetleaf; [14]) was 0 and the “Velvetleaf plant response rating” value (velvetleaf; [15]) was 0. For the same compound, the “Plant response rating, Velvetleaf” value (velvetleaf; [17]) was 0, the “Plant response rating, Velvetleaf” value (velvetleaf; [3]) was 0 and the “Plant response rating, Ducksalad (0 to 10 scale, 0 is no effect, 10 is complete control)” value (duck salad; Rate 62 g/ha, flood test species, Pre-emergence, visual evaluation after twelve to sixteen days) was 0. For the same compound, the “Ducksalad plant response rating (0 to 10 scale, 0 is no effect, 10 is complete control)” value (duck salad; Rate 125 g/ha, under heading Pre-emergence, flood test species, visual evaluation after twelve to sixteen days) was 0, the “Ducksalad plant response rating” value (duck salad; Rate 250 g/ha, Pre-emergence (flood test species), scale 0 to 10, 0 is no effect, 10 is complete control) was 0 and the “Ducksalad plant response rating” value (duck salad; Rate 500 g/ha, Pre-emergence section of Table B, 0 to 10 scale (0 no effect, 10 complete control)) was 0.
In the case of Cc1c(-n2c(=O)on(C(=O)N(c3ccc(Cl)cc3)C(C)C)c2=O)ccc2ccccc12 [Compound 336], the “Plant response rating, Cocklebur” value (cocklebur; [18]) is reported as 0, the “Cocklebur plant response rating” value (cocklebur; [1]) is reported as 0 and the “Cocklebur plant response rating (0 to 10 scale)” value (cocklebur; Preemergence, Rate 125 g/ha) is reported as 0. The “Cocklebur plant response rating” value (cocklebur; [2]) was 0, the “Cocklebur plant response rating” value (cocklebur; [3]) was 0 and the “Cocklebur plant response rating” value (cocklebur; [4]) was 0. The “Plant response rating, Cocklebur” value (cocklebur; [7]) was 0, the “Plant response rating, Soybean” value (soybean; [18]) was 1 and the “Soybean plant response rating” value (soybean; [1]) was 0. The “Soybean plant response rating (0 to 10 scale)” value (soybean; Preemergence, Rate 125 g/ha) was 0, the “Soybean plant response rating” value (soybean; [2]) was 0 and the “Soybean plant response rating” value (soybean; [3]) was 0. The “Soybean plant response rating” value (soybean; [4]) was 1, the “Plant response rating, Soybean” value (soybean; [7]) was 2 and the “Plant response rating, Velvetleaf” value (velvetleaf; [18]) was 0. For the same compound, the “Velvetleaf plant response rating” value (velvetleaf; [1]) was 0, the “Velvetleaf plant response rating (0 to 10 scale)” value (velvetleaf; Preemergence, Rate 125 g/ha) was 0 and the “Velvetleaf plant response rating” value (velvetleaf; [2]) was 0. The “Velvetleaf plant response rating” value (velvetleaf; [3]) was 0, the “Velvetleaf plant response rating” value (velvetleaf; [4]) was 0 and the “Plant response rating, Velvetleaf” value (velvetleaf; [7]) was 0. The “Ducksalad plant response rating” value (duck salad; [8]) was 0, the “Ducksalad plant response rating” value (duck salad; [9]) was 0 and the “Ducksalad plant response rating” value (duck salad; [10]) was 0. The “Ducksalad plant response rating” value (duck salad; [11]) was 0.
